For data set [1], the target named is T1, EGFR (Homo sapiens, UniProt P00533).
T1 construct: purchased Carna 08-115
Description: Kinase inhibitory activity, Mobility Shift Assay (EGFR). It is filed as biochemical. The method, then:
Assay for Inhibitory Activity of Compounds Against VEGFR and EGFR Kinases
This assay directly monitors the inhibitory activity of compounds on kinase phosphorylation by measuring non-phosphorylated and phosphorylated substrates in the kinase reaction using Mobility Shift Assays/IMAP™ analysis. Table 2. Reagents and Instruments
Kinase and DTT were added to 1X kinase buffer to form a 2.5X kinase solution; 10 µL of the 2.5X kinase solution was transferred to a 384-well reaction plate, and 1X kinase buffer was added to the negative control wells. The plate was incubated at room temperature for 10 minutes; FAM-labeled peptide, MgCl2, ATP, and other reagents were added to 1X kinase buffer to form a 2.5X substrate solution; 10 µL of the above 2.5X substrate solution was transferred to the 384-well reaction plate; the plate was incubated at 28°C for varying times, and then 25 µL of stop solution was added to the 384-well reaction plate to terminate the reaction. Conversion rate data were read on a CaliperEZ Reader II. […] IC50 values were fitted using XLFit excel add-in version 5.4.0.8. Y = Bottom + (Top−Bottom)/(1 + […]) [formula]
X is the log value of compound concentration, Y is the inhibition rate (% inhibition).

Data set [2] has as its system melanin. Description: Compound binding to melanin. The data set is classed as in vitro ADME. Conditions: cuttlefish (Sepia officinalis), melanin suspension (1 mg/mL), percentage of free drug (not bound to melanin), 2 µM compound, melanin 1 mg/mL in PBS pH 7.4, 37°C. From the text:
Detection of Compound Binding to Melanin
Pigmented ocular tissues contain melanin within intracellular melanosomes. Drugs bind to melanin to varying degrees, from no binding to extensive binding. Therefore, melanin binding is an important characteristic affecting ocular drug delivery and biodistribution. The ability of compounds to bind to melanin must be considered in ocular drug development.
Melanin derived from cuttlefish (Sepia officinalis) melanin was purchased from Sigma Aldrich (St Louis, MO).
First, prepare a 1 mg/mL melanin suspension in PBS (pH 7.4). As a matrix washing step, suspended particles were centrifuged at 3000 rpm for 5 minutes. The resulting pellet was resuspended in fresh PBS buffer, heated to 37°C with continuous shaking, and incubated for 1 hour. Accurately pipette 2 microliters of test compound stock solution (0.1 mM) into 98 microliters of melanin suspension (1 mg/mL), resulting in a final incubation concentration of 2 µM. Similarly, accurately pipette 2 microliters of stock solution (0.1 mM) into 98 microliters of PBS buffer (containing 0.1% BSA) as a blank control sample. Samples were incubated at 37°C for 2 hours on a shaker (80-90 rpm). Then centrifuged at room temperature. 50 microliters of supernatant was aspirated and added to 50 microliters of precipitation agent (containing internal standard). All samples above were subjected to protein precipitation, centrifuged, the supernatant was taken, diluted with water (if necessary), and then injected for analysis. Simultaneously, high-binding compounds Sunitinib and chloroquine, and the low-binding compound celecoxib were measured as positive controls. An LC-MS/MS analytical method for determining compound concentration was established. The ratio of analyte/internal standard peak areas (Aanalyte/AIS) measured in the samples, calibrated by the dilution factor, was used as the surrogate concentration for data processing. The binding rate of the compound to melanin (Fb) is calculated by the formula: Fb = 100−(Ctest)/(Ccontrol) × 100% [formula]
Ctest is the drug concentration of the compound in the melanin incubation sample or the peak area ratio of the test compound to the internal standard. Ccontrol is the drug concentration of the compound in the blank control sample or the peak area ratio of the test compound to the internal standard. Percentage of free drug (Fu%) = 100 - Fb The binding rates of the compounds of the present invention to melanin are shown in the table below: Table 11. Binding Rate of Compounds to Melanin

Data set [3] is described as follows: Thermodynamic solubility test. The data set is classed as physicochemical. The note with it: buffer solution, aqueous buffer, thermodynamic from solid; thermodynamic solubility, room temperature, 8 hours shaking; buffers pH 2.0, 6.5, 7.4 used, pH of the tabulated value not given. The method, then:
Solubility Test of Compounds
Table 9. Reagents and Instruments
After sonication for 10 minutes, they were fixed on a shaker and shaken at room temperature for 8 hours. After shaking, they were sonicated for 10 minutes and centrifuged at 13000 rpm for 15 minutes. 0.1 mL of supernatant was aspirated into a new tube, rinsed with 5 mL of buffer by shaking, and the liquid was discarded. 0.5 mL of supernatant was transferred again to a new tube, centrifuged at 13000 rpm for 15 minutes, and the supernatant was taken (diluted with water if necessary) for LC-MS injection analysis. Sample concentrations were quantified using a 3-5 point calibration curve.

Consider 30 compounds from patent EP4781984A1 (Beyang Therapeutics Co., Ltd., priority 2023, dated 2025).

A word on the IC50: it is the midpoint of a concentration-inhibition curve. Usually fraction unbound stands for the share of the substance not bound to proteins or other matrix. A low value points to little free substance. Broadly, the solubility is the concentration that dissolves in the medium under given conditions. A low value points to a poorly soluble substance.

In brackets after ≈: the same amount, converted by molar mass.

T1 sequence (P00533 25-1210): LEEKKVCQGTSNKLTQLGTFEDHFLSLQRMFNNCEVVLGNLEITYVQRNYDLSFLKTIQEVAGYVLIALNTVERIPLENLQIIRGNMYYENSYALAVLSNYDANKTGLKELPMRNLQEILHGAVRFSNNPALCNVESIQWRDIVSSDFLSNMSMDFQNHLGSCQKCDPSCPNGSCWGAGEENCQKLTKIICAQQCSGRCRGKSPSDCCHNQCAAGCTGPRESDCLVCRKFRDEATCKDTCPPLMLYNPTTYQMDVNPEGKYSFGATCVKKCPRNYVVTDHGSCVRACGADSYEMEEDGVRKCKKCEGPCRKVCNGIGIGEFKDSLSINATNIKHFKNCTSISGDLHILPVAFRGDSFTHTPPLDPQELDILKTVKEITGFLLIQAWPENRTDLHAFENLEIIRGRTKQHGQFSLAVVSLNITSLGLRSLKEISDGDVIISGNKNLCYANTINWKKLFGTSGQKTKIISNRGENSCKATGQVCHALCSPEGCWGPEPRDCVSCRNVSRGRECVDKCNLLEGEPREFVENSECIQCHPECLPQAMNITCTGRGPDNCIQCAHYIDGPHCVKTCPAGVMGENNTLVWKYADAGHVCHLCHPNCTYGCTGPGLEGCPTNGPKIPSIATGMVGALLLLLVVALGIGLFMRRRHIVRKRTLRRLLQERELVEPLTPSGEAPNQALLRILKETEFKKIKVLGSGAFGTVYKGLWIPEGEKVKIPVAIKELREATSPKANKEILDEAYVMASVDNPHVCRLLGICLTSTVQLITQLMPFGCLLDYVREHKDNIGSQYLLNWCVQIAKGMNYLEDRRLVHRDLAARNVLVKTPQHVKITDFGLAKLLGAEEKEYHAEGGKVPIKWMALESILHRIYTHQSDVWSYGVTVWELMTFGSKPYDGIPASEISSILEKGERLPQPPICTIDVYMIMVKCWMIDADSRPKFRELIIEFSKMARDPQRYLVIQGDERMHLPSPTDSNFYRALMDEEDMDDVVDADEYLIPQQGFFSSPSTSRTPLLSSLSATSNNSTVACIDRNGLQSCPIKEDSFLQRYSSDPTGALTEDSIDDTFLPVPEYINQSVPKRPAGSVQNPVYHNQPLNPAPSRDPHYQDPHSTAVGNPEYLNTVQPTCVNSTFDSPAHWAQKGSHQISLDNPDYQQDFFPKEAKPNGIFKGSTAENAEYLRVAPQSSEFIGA

`O=C(NC1CC1)c1cccc(F)c1Sc1ccc2c(/C=C/c3cccc(CCN4CCCC4)n3)n[nH]c2c1` [Compound I-128]: the IC50 in data set [1] was greater than 60 µM.
For the compound `CNC(=O)c1cc(F)ccc1Sc1ccc2c(/C=C/c3cnn(CCCN4CCCC4)c3)n[nH]c2c1` [Compound I-106], the fraction unbound at 2 h, 2 µM in data set [2] is greater than 0.05. Moreover, the IC50 in data set [1] was 6 to 60 µM.
Consider `O=C(NC1CC1)c1ccccc1Sc1ccc2c(C#Cc3ccc(OCCN4CCCC4)cn3)n[nH]c2c1` [Compound I-139], for which the IC50 in data set [1] was greater than 60 µM.
Consider `O=C(NC1CC1)c1cc(F)ccc1Sc1ccc2c(/C=C/c3cc(OCCN4CCCC4)ccn3)n[nH]c2c1` [Compound I-118], for which the fraction unbound at 2 h, 2 µM in data set [2] is no more than 0.01. Also, the IC50 in data set [1] is greater than 60 µM.
In data set [2], `CN1CCC(CCOc2ccc(/C=C/c3n[nH]c4cc(Sc5ccccc5C(=O)NC5CC5)ccc34)nc2)CC1` [Compound I-42] gave a fraction unbound at 2 h, 2 µM of 0.01 to 0.05. In data set [1], the IC50 was greater than 60 µM.
Take `O=C(NC1CC1)c1ccccc1Sc1ccc2c(/C=C/c3cccc(CN4CCCC4)n3)n[nH]c2c1` [Compound I-117]: the fraction unbound at 2 h, 2 µM in data set [2] is 0.01 to 0.05. Besides, in data set [1], the IC50 is greater than 60 µM.
For the compound `O=C(NC1CC1)c1cc(F)ccc1Sc1ccc2c(/C=C/c3cccc(CCN4CCCC4)n3)n[nH]c2c1` [Compound I-136], the IC50 in data set [1] was greater than 60 µM.
`CCN(CC)Cc1ccc(/C=C/c2n[nH]c3cc(Sc4ccccc4C(=O)NCC(F)F)ccc23)nc1` [Compound I-99]: the fraction unbound at 2 h, 2 µM in data set [2] is greater than 0.05. In addition, in data set [3], the solubility at 8 h came out at 341 µg/mL (≈ 654 µM).
Compound `CNC(=O)c1ccccc1Sc1cnc2c(/C=C/c3ccccn3)n[nH]c2c1` [Compound I-21, N-methyl-2-({3-[(E)-2-(pyridin-2-yl)ethenyl]-1H-pyrazolo[4,3-b]pyridin-6-yl}sulfanyl)benzamide] registered a fraction unbound at 2 h, 2 µM in data set [2] of 0.01 to 0.05. The compound also returned a solubility at 8 h in data set [3] of 0.9 µg/mL (≈ 2.32 µM).
Compound `CCN(CC)Cc1ccc(/C=C/c2n[nH]c3cc(Sc4ccccc4C(=O)NCCF)ccc23)nc1` [Compound I-98, 2-({3-[(E)-2-{5-[(diethylamino)methyl]pyridin-2-yl}ethenyl]-1H-indazol-6-yl}sulfanyl)-N-(2-fluoroethyl)benzamide] displayed a fraction unbound at 2 h, 2 µM in data set [2] greater than 0.05. The solubility at 8 h in data set [3] came out at 456 µg/mL (≈ 905 µM).
`CNC(=O)c1ccccc1Sc1ccc2c(/C=C/c3ccn(CCCN4CCCC4)n3)n[nH]c2c1` [Compound I-11] returned a fraction unbound at 2 h, 2 µM in data set [2] of 0.01 to 0.05. Further, in data set [3], the solubility at 8 h was found to be 866 µg/mL (≈ 1780 µM).
On to `O=C(NC1CC1)c1cccc(F)c1Sc1ccc2c(/C=C/c3cc(CCCN4CCCC4)ccn3)n[nH]c2c1` [Compound I-123], for which the IC50 in data set [1] was greater than 60 µM.
Consider `O=C(NC1CC1)c1cc(F)ccc1Sc1ccc2c(/C=C/c3ccc(CN4CCCC4)cn3)n[nH]c2c1` [Compound I-80], for which the fraction unbound at 2 h, 2 µM in data set [2] was 0.01 to 0.05. For the same compound, the solubility at 8 h in data set [3] is 199 µg/mL (≈ 387 µM).
In the case of `CCN(CC)Cc1ccc(/C=C/c2n[nH]c3cc(Sc4ccccc4C(=O)NCC(F)(F)F)ccc23)nc1` [Compound I-100], the fraction unbound at 2 h, 2 µM in data set [2] was greater than 0.05. In data set [3], this compound registered a solubility at 8 h of 209 µg/mL (≈ 387 µM).
For `CCN(CC)Cc1ccc(/C=C/c2n[nH]c3cc(Sc4c(F)cccc4C(=O)NC)ccc23)nc1` [Compound I-91], the fraction unbound at 2 h, 2 µM in data set [2] is 0.01 to 0.05. This compound displayed a solubility at 8 h in data set [3] of 1650 µg/mL (≈ 3370 µM).
The compound `CNC(=O)c1cccc(F)c1Sc1ccc2c(/C=C/c3ccc(OCCN4CCCC4)cn3)n[nH]c2c1` [Compound I-33, 3-fluoro-N-methyl-2-({3-[(E)-2-{5-[2-(pyrrolidin-1-yl)ethoxy]pyridin-2-yl}ethenyl]-1H-indazol-6-yl}sulfanyl)benzamide] displayed a fraction unbound at 2 h, 2 µM in data set [2] greater than 0.05. The same compound registered a solubility at 8 h in data set [3] of 57.7 µg/mL (≈ 111 µM).
As for `O=C(NC1CC1)c1cc(F)ccc1Sc1ccc2c(/C=C/c3cccc(CN4CCCC4)n3)n[nH]c2c1` [Compound I-138], in data set [1], the IC50 is greater than 60 µM.
Take `CNC(=O)c1ccccc1Sc1ccc2c(/C=C/c3cccc(OCCN4CCCC4)c3)n[nH]c2c1` [Compound I-15]: in data set [2], the fraction unbound at 2 h, 2 µM lay in the range of 0.01 to 0.05. In data set [3], the concentration in solution (solubility at 8 h) came to 78.8 µg/mL (≈ 158 µM).
With `CCNC(=O)c1cccc(F)c1Sc1ccc2c(/C=C/c3cccc(CCN4CCCC4)n3)n[nH]c2c1` [Compound I-129], the IC50 in data set [1] is greater than 60 µM.
For the compound `CNC(=O)c1ccccc1Sc1ccc2c(/C=C/c3ccc(OCCN4CCCC4)nc3)n[nH]c2c1` [Compound I-19, N-methyl-2-((3-((E)-2-(6-(2-(pyrrolidin-1-yl)ethoxy)pyridin-3-yl)ethenyl)-1H-indazol-6-yl)thio)benzamide], the fraction unbound at 2 h, 2 µM in data set [2] lay within 0.01 to 0.05. In data set [1], the IC50 was greater than 60 µM.
`CNC(=O)c1ccccc1Sc1ccc2c(/C=C/c3cccc(OCCN4CCCC4)n3)n[nH]c2c1` [Compound I-17] registered a fraction unbound at 2 h, 2 µM in data set [2] of 0.01 to 0.05. In addition, in data set [3], the solubility at 8 h turned out to be 278 µg/mL (≈ 556 µM).
The compound `CCNC(=O)c1cccc(F)c1Sc1ccc2c(/C=C/c3cc(CCCN4CCCC4)ccn3)n[nH]c2c1` [Compound I-116, N-ethyl-3-fluoro-2-({3-[(E)-2-{4-[3-(pyrrolidin-1-yl)propyl]pyridin-2-yl}ethenyl]-1H-indazol-6-yl}sulfanyl)benzamide] had an unbound share (fraction unbound) at 2 h, 2 µM in data set [2] of 0.01 to 0.05. In addition, the IC50 in data set [1] was greater than 60 µM.
With `O=C(NC1CC1)c1cc(F)ccc1Sc1ccc2c(/C=C/c3cc(CN4CCCC4)ccn3)n[nH]c2c1` [Compound I-137], the half-inhibitory concentration (IC50) in data set [1] was greater than 60 µM.
Same read-out and setting: under `O=C(NC1CC1)c1ccccc1Sc1ccc2c(/C=C/c3cc(CCN4CCCC4)ccn3)n[nH]c2c1` [Compound I-133, N-cyclopropyl-2-((3-((E)-2-(4-(2-(pyrrolidin-1-yl)ethyl)pyridin-2-yl)ethenyl)-1H-indazol-6-yl)thio)benzamide] stands greater than 60 µM; under `O=C(NC1CC1)c1cc(F)ccc1Sc1ccc2c(/C=C/c3cc(CCN4CCCC4)ccn3)n[nH]c2c1` [Compound I-135], greater than 60 µM.
`CCN(CC)Cc1ccc(/C=C/c2n[nH]c3cc(Sc4cc(F)ccc4C(=O)NC4CC4)ccc23)nc1` [Compound I-83, N-cyclopropyl-4-fluoro-2-({3-[(E)-2-{5-[(diethylamino)methyl]pyridin-2-yl}ethenyl]-1H-indazol-6-yl}thio)benzamide]: in data set [2], the fraction unbound at 2 h, 2 µM was greater than 0.05. For the same compound, the solubility at 8 h in data set [3] stood at 79.6 µg/mL (≈ 154 µM).
For the compound `CCNC(=O)c1cc(F)ccc1Sc1ccc2c(/C=C/c3cc(CCCN4CCCC4)ccn3)n[nH]c2c1` [Compound I-122], in data set [1], the IC50 is greater than 60 µM.
Regarding `CNC(=O)c1ccccc1Sc1ccc2c(/C=C/c3cc(OCCN4CCCC4)ccn3)n[nH]c2c1` [Compound I-20], the fraction unbound at 2 h, 2 µM in data set [2] lay in the range of 0.01 to 0.05. This compound displayed a solubility at 8 h in data set [3] of 128 µg/mL (≈ 256 µM).
On the same counts, the results for `O=C(NC1CC1)c1ccccc1Sc1ccc2c(/C=C/c3ccc(OCCN4CCCC4)cn3)n[nH]c2c1` [Compound I-8, N-cyclopropyl-2-((3-((E)-2-(5-(2-(pyrrolidin-1-yl)ethoxy)pyridin-2-yl)ethenyl)-1H-indazol-6-yl)thio)benzamide] are 0.01 to 0.05 and 1870 µg/mL (≈ 3560 µM).
Consider `CNC(=O)c1ccccc1Sc1ccc2c(C#Cc3ccc(OCCN4CCCC4)cn3)n[nH]c2c1` [Compound I-16], for which the free fraction (fraction unbound) at 2 h, 2 µM in data set [2] was no more than 0.01. The compound further registered a solubility at 8 h in data set [3] of 27.2 µg/mL (≈ 54.7 µM).
